Results: patent US20240409585A1, “MACROCYCLIC IMMUNOMODULATORS” (priority 2021, published 2024)
Bridge positions count the residues as written; N and C are the ends. Square brackets hold non-standard residues; d marks the D form. Peptide text beside a SMILES is read from it. * marks the point of attachment. ξ: configuration not given here. Phe(4-COOH) = N[C@@H](Cc1ccc(C(=O)O)cc1)C(=O)O; Bip = N[C@@H](Cc1ccc(-c2ccccc2)cc1)C(=O)O; Phe(3-Me) = Cc1cccc(C[C@H](N)C(=O)O)c1; Val(3-OH) = CC(C)(O)[C@H](N)C(=O)O; h4Pal = N[C@@H](CCc1ccncc1)C(=O)O; 3Pal = N[C@@H](Cc1cccnc1)C(=O)O; 4Pal = N[C@@H](Cc1ccncc1)C(=O)O; Cha = N[C@@H](CC1CCCCC1)C(=O)O; Cit = NC(=O)NCCC[C@H](N)C(=O)O; Ile(3ξ) = CCC(C)[C@H](N)C(=O)O; Thr(3ξ) = CC(O)[C@H](N)C(=O)O; Carboxymethyl = O=C(O)C*; NMeA = CN[C@@H](C)C(=O)O; Orn = NCCC[C@H](N)C(=O)O; Dab = NCC[C@H](N)C(=O)O; Dap = NC[C@H](N)C(=O)O

The compounds below were run against T1, PE-labeled human PD-L1-Ig binding to Jurkat cell line over-expressing human PD-1 (Jurkat-PD-1) (Homo sapiens, UniProt Q15116) (assay: Jurkat-PD-1 Cell Binding High-Content Screening Assay (CBA): Method 1). Settings: Jurkat-hPD-1 cells, PE-labeled PD-L1-Ig 20 nM final; read-out: Jurkat HPDL1 PD1 IC50 (uM) (Method 1).
T1 construct: expressed in transfected cells; host or cells: Jurkat
T1 sequence (Q15116 25-288): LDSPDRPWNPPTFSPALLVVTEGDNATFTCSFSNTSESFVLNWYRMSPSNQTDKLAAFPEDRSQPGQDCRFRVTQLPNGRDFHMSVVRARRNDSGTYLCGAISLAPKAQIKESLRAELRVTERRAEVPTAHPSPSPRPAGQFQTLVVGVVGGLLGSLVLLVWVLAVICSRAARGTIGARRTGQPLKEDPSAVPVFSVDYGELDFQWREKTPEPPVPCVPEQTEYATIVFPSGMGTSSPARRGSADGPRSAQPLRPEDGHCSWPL
In the case of `Cc1cccc(C[C@@H]2NC(=O)[C@H](CC(=O)O)NC(=O)[C@H](Cc3ccc(O)cc3)NC(=O)[C@H](CN)NC(=O)CSC[C@@H](C(=O)N[C@@H](C)C(N)=O)NC(=O)[C@H]([C@@H](C)O)NC(=O)[C@H](C(C)C)NC(=O)[C@H](CC(C)C)NC(=O)[C@H](CCN)NC(=O)[C@@H](CC(C)C)NC(=O)[C@H](C)N(C)C(=O)[C@H](CCCNC(N)=O)NC(=O)[C@H](Cc3ccc(-c4ccccc4)cc3)NC(=O)[C@H](C(C)C)NC2=O)c1` [Compound 1422] ({CH2CO}-[Dap]YD[Phe(3-Me)]V[Bip][Cit][NMeA][dL][Dab]LVTCA-NH2; thioether N-14), the IC50 is reported as 0.05 µM.
Work on `CC(C)C[C@@H]1NC(=O)[C@H](Cc2c[nH]c3ccccc23)NC(=O)[C@H](CC(=O)O)NC(=O)[C@H](Cc2ccc(OCC(=O)O)cc2)NC(=O)[C@H](Cc2ccccc2)NC(=O)CSC[C@@H](C(=O)N[C@@H](C)C(N)=O)NC(=O)[C@H](CO)NC(=O)[C@H](C(C)C)NC(=O)[C@H](CC(C)C)NC(=O)[C@H](CC(N)=O)NC(=O)[C@@H](CC(C)C)NC(=O)[C@H](C)N(C)C(=O)[C@H](CCCCN)NC(=O)[C@H](Cc2ccc(-c3ccccc3)cc2)NC1=O` [Compound 2030] ({CH2CO}-FY(Carboxymethyl)DWL[Bip]K[NMeA][dL]NLVSCA-NH2; thioether N-14) yielded an IC50 of 0.03 µM.
In the case of `CC(C)C[C@@H]1NC(=O)[C@H](Cc2c[nH]c3ccccc23)NC(=O)[C@H](CC(=O)O)NC(=O)[C@H](Cc2ccc(O)cc2)NC(=O)[C@H](Cc2ccccc2)NC(=O)CSC[C@@H](C(=O)N[C@@H](C)C(N)=O)NC(=O)[C@H]([C@@H](C)O)NC(=O)[C@H](CCCN)NC(=O)[C@H](CC(C)C)NC(=O)[C@H](CC(N)=O)NC(=O)[C@@H](C)NC(=O)[C@H](C)N(C)C(=O)[C@H](C(C)C)NC(=O)[C@H](Cc2ccc(-c3ccccc3)cc2)NC1=O` [Compound 1533] ({CH2CO}-FYDWL[Bip]V[NMeA][dA]NL[Orn]TCA-NH2; thioether N-14), the IC50 is reported as 0.15 µM.
`CC(C)C[C@@H]1NC(=O)[C@H](Cc2c[nH]c3ccccc23)NC(=O)[C@H](CC(=O)O)NC(=O)[C@H](Cc2ccc(O)cc2)NC(=O)[C@H](Cc2ccccc2)NC(=O)CSC[C@@H](C(=O)N[C@@H](C)C(N)=O)NC(=O)[C@H](CO)NC(=O)[C@H](C(C)C)NC(=O)[C@H](CC(C)C)NC(=O)[C@H](CCCCN)NC(=O)[C@@H](C)NC(=O)[C@H](C)N(C)C(=O)[C@H](CCC(=O)O)NC(=O)[C@H](Cc2ccc(-c3ccccc3)cc2)NC1=O` [Compound 1767] ({CH2CO}-FYDWL[Bip]E[NMeA][dA]KLVSCA-NH2; thioether N-14) gave an IC50 of 0.04 µM.
`CCC(C)[C@@H]1NC(=O)[C@H](Cc2ccc(-c3ccccc3)cc2)NC(=O)[C@H](CC(C)C)NC(=O)[C@H](Cc2c[nH]c3ccccc23)NC(=O)[C@H](CC(=O)O)NC(=O)[C@H](Cc2ccc(C(=O)O)cc2)NC(=O)[C@H](Cc2ccc(OCC(=O)O)cc2)NC(=O)CSC[C@@H](C(=O)N[C@@H](CC(N)=O)C(N)=O)NC(=O)[C@H](CO)NC(=O)[C@H](C(C)(C)O)NC(=O)[C@H](CC2CCCCC2)NC(=O)[C@H](CCN)NC(=O)[C@@H](CC(C)C)NC(=O)[C@H](C)N(C)C1=O` (stereo partly drawn) [Compound 1916] ({CH2CO}-Y(Carboxymethyl)[Phe(4-COOH)]DWL[Bip][Ile(3ξ)][NMeA][dL][Dab][Cha][Val(3-OH)]SCN-NH2; thioether N-14) was tested, and the IC50 was 0.02 µM.
`CC[C@H](C)[C@@H]1NC(=O)[C@H](Cc2ccc(-c3ccccc3)cc2)NC(=O)[C@H](C(C)C)NC(=O)[C@H](Cc2c[nH]c3ccccc23)NC(=O)[C@H](CC(=O)O)NC(=O)[C@H](Cc2ccc(O)cc2)NC(=O)[C@H](Cc2cccnc2)NC(=O)CSC[C@@H](C(=O)N[C@@H](C)C(N)=O)NC(=O)[C@H]([C@@H](C)O)NC(=O)[C@H](C(C)C)NC(=O)[C@H](CC(C)C)NC(=O)[C@H](CCN)NC(=O)[C@@H](CC(C)C)NC(=O)[C@H](C)N(C)C1=O` [Compound 1401] ({CH2CO}-[3Pal]YDWV[Bip]I[NMeA][dL][Dab]LVTCA-NH2; thioether N-14) showed an IC50 of 0.01 µM.
For `Cc1cccc(C[C@@H]2NC(=O)[C@H](CC(=O)O)NC(=O)[C@H](Cc3ccc(OCC(=O)O)cc3)NC(=O)[C@H]([C@@H](C)O)NC(=O)CSC[C@@H](C(N)=O)NC(=O)[C@H](CCC(N)=O)NC(=O)[C@H](C(C)C)NC(=O)[C@H](CC3CCCCC3)NC(=O)[C@H](CCN)NC(=O)[C@@H](CC(C)C)NC(=O)[C@H](C)N(C)C(=O)[C@H](Cc3ccc(OCC(=O)O)cc3)NC(=O)[C@H](Cc3ccc(-c4ccccc4)cc3)NC(=O)[C@H](Cc3ccc(OCC(=O)O)cc3)NC2=O)c1` [Compound 1671] ({CH2CO}-TY(Carboxymethyl)D[Phe(3-Me)]Y(Carboxymethyl)[Bip]Y(Carboxymethyl)[NMeA][dL][Dab][Cha]VQC-NH2; thioether N-14), the IC50 was 0.09 µM.
`Cc1cccc(C[C@@H]2NC(=O)[C@H](CC(=O)O)NC(=O)[C@H](Cc3ccc(OCC(=O)O)cc3)NC(=O)[C@H](Cc3ccncc3)NC(=O)CSC[C@@H](C(=O)N[C@@H](CCN)C(N)=O)NC(=O)[C@H](CCC(=O)O)NC(=O)[C@H](C(C)(C)O)NC(=O)[C@H](CC3CCCCC3)NC(=O)[C@H](CCN)NC(=O)[C@@H](CC(C)C)NC(=O)[C@H](C)N(C)C(=O)[C@H](Cc3ccc(C(=O)O)cc3)NC(=O)[C@H](Cc3ccc(-c4ccccc4)cc3)NC(=O)[C@H](Cc3ccc(C(=O)O)cc3)NC2=O)c1` [Compound 2196] ({CH2CO}-[4Pal]Y(Carboxymethyl)D[Phe(3-Me)][Phe(4-COOH)][Bip][Phe(4-COOH)][NMeA][dL][Dab][Cha][Val(3-OH)]EC[Dab]-NH2; thioether N-14) was tested, and the IC50 was 0.02 µM.
Compound `Cc1cccc(C[C@@H]2NC(=O)[C@H](CC(=O)O)NC(=O)[C@H](Cc3ccc(OCC(=O)O)cc3)NC(=O)[C@H](Cc3ccncc3)NC(=O)CSC[C@@H](C(=O)N[C@@H](CN)C(N)=O)NC(=O)[C@H](C(C)O)NC(=O)[C@H](C(C)(C)O)NC(=O)[C@H](CC3CCCCC3)NC(=O)[C@H](CCN)NC(=O)[C@@H](CC(C)C)NC(=O)[C@H](C)N(C)C(=O)[C@H](CCCNC(N)=O)NC(=O)[C@H](Cc3ccc(-c4ccccc4)cc3)NC(=O)[C@H](Cc3ccc(OCC(=O)O)cc3)NC2=O)c1` (stereo partly drawn) [Compound 2168] ({CH2CO}-[4Pal]Y(Carboxymethyl)D[Phe(3-Me)]Y(Carboxymethyl)[Bip][Cit][NMeA][dL][Dab][Cha][Val(3-OH)][Thr(3ξ)]C[Dap]-NH2; thioether N-14) has an IC50 of 0.03 µM.
In the case of `Cc1cccc(C[C@@H]2NC(=O)[C@H](CC(=O)O)NC(=O)[C@H](Cc3ccc(OCC(=O)O)cc3)NC(=O)[C@H](CN)NC(=O)CSC[C@@H](C(=O)N[C@@H](C)C(N)=O)NC(=O)[C@H]([C@@H](C)O)NC(=O)[C@H](C(C)C)NC(=O)[C@H](CC(C)C)NC(=O)[C@H](CCN)NC(=O)[C@@H](CC(C)C)NC(=O)[C@H](C)N(C)C(=O)[C@H](C(C)C)NC(=O)[C@H](Cc3ccc(-c4ccccc4)cc3)NC(=O)[C@H](C(C)C)NC2=O)c1` [Compound 1418] ({CH2CO}-[Dap]Y(Carboxymethyl)D[Phe(3-Me)]V[Bip]V[NMeA][dL][Dab]LVTCA-NH2; thioether N-14), the IC50 is reported as 0.01 µM.
`CC(C)C[C@@H]1NC(=O)[C@H](CCN)NC(=O)[C@@H](CC(C)C)NC(=O)[C@H](C)N(C)C(=O)[C@H](CCCNC(=N)N)NC(=O)[C@H](Cc2ccc(-c3ccccc3)cc2)NC(=O)[C@H](C(C)C)NC(=O)[C@H](Cc2c[nH]c3ccccc23)NC(=O)[C@H](CC(=O)O)NC(=O)[C@H](CCc2ccncc2)NC(=O)[C@H](CC(N)=O)NC(=O)CSC[C@@H](C(=O)N[C@@H](C)C(N)=O)NC(=O)[C@H]([C@@H](C)O)NC(=O)[C@H](C(C)C)NC1=O` [Compound 1352] ({CH2CO}-N[h4Pal]DWV[Bip]R[NMeA][dL][Dab]LVTCA-NH2; thioether N-14) showed an IC50 of 0.01 µM.
